Laboratory results published in patent publication US4087432A, “1H-imidazo(4,5-b)pyridine compounds” (Eli Lilly and Company, priority 1975, dated 1978).

Experiments:
[1] = system: Velvet Leaf; assay: Postemergent injury rating, velvetleaf; type: in vivo
Procedure: (§1) Various of the compounds to be employed as active agent in accordance with the present invention were evaluated for preemergent application to various species of plants. In this evaluation, a soil was prepared consisting of one part masonry sand and one part shredded top soil blended together in a cement mixer. One gallon of this soil was placed in a 25 × 35 cm. galvanized flat and was patted down with a bench brush until level. A three-row marker was used to make 21/2 cm. deep furrows in approximately two-fifths of the flat. Crop seeds consisting of four kernels of corn, five cotton seeds and five soybean seeds were placed in these furrows. A four-row template was then placed on the remaining soil and the indicated approximate numbers of each of the following seeds were planted, one species to each section: foxtail (millet), 80-100 seeds; velvetleaf (40-50 seeds); rough pigweed (150-250 seeds); and large crabgrass (100-150 seeds).
(§2) Sufficient soil was added to cover the entire flat. Thus, the weed seeds were covered to a depth of about 6 mm. and the crop seeds were covered to a depth of about 3 cm.
(§3) In assaying the effect of the composition as preemergent herbicides, a flat prepared as above, taken either on the day of planting or on the next day, was placed in a chamber equipped with a turntable and an air exhaust. The herbicidal composition, either a spray-type emulsion or a wettable powder, was applied to the flat with a modified DeVilbiss atomizer hooked to an air source. Twelve and one-half milliliters of the composition under test were applied to each flat either on the day of planting or the succeeding day. Injury ratings and observations as to type of injury were made eleven to twelve days after treatment. The injury rating scale used was as follows:
(§4) 4--death When more than one determination was carried out at a given rate, an average value was calculated for the injury rating. Each compound evaluated was formulated as a spray by one of the following procedures. In one method the particular compound was wetted by grinding in a mortar with one part of polyoxyethylene sorbitan monolaurate. Five hundred parts of water were added slowly to the resultant creamy paste to give an aqueous dispersion with a surfactant concentration of 0.2 percent. This dispersion was entirely satisfactory for spray application. In a second procedure the compound was dissolved in one volume of acetone, and the acetone solution was diluted with nineteen volumes of water containing 0.1 percent of polyoxyethylene sorbitan monolaurate.
(§5) Representative compounds of the present invention were evaluated for postemergent application to plants including corn and several weed species. The evaluation was carried out in accordance with the procedures of Examples 49-52 except that the test solutions were applied about 9-12 days after the preparation and seeding of the flats.

[2] = system: Soybean; assay: Preemergent injury rating, soybean; type: in vivo; parameters: key: injury rating scale on which 4 = death
Procedure: as §1, §2, §3, §4
(§6) In the following table setting forth the results of the evaluation, column 1 gives the name of the compound under test; column 2, the rate in pounds per acre at which the compound was applied to the test flat; and the remaining columns, the injury to the particular plant seeds or seedlings as measured by the foregoing scale.

[3] = system: Crabgrass; assay: Postemergent injury rating, crabgrass; type: in vivo, large crabgrass; parameters: key: injury rating scale, 4 = death
Procedure: as §1, §2, §3, §4, §5

[4] = system: Cotton; assay: Postemergent injury rating, cotton; type: in vivo
Procedure: as §1, §2, §3, §4, §5

[5] = system: Soybean; assay: Postemergent injury rating, soybean; type: in vivo
Procedure: as §1, §2, §3, §4, §5

[6] = system: Corn; assay: Preemergent injury rating, corn; type: in vivo; parameters: key: injury rating scale on which 4 = death
Procedure: as §1, §2, §3, §4, §6

[7] = system: Crabgrass; assay: Preemergent injury rating, crabgrass; type: in vivo, large crabgrass; parameters: key: injury rating scale on which 4 = death
Procedure: as §1, §2, §3, §4, §6

[8] = system: Foxtail; assay: Preemergent injury rating, foxtail; type: in vivo, foxtail (millet); parameters: key: injury rating scale on which 4 = death
Procedure: as §1, §2, §3, §4, §6

[9] = system: Pigweed; assay: Postemergent injury rating, pigweed; type: in vivo, rough pigweed; parameters: key: injury rating scale, 4 = death
Procedure: as §1, §2, §3, §4, §5

[10] = system: Corn; assay: Postemergent injury rating, corn; type: in vivo; parameters: key: injury rating scale, 4 = death
Procedure: as §1, §2, §3, §4, §5

[11] = system: Cotton; assay: Preemergent injury rating, cotton; type: in vivo; parameters: key: injury rating scale on which 4 = death
Procedure: as §1, §2, §3, §4, §6

[12] = system: Foxtail; assay: Postemergent injury rating, foxtail; type: in vivo, foxtail (millet); parameters: key: injury rating scale, 4 = death
Procedure: as §1, §2, §3, §4, §5

[13] = system: Pigweed; assay: Preemergent injury rating, pigweed; type: in vivo, rough pigweed; parameters: key: injury rating scale on which 4 = death; settings: 2 lbs/acre
Procedure: as §1, §2, §3, §4, §6

[14] = system: Velvet Leaf; assay: Preemergent injury rating, velvetleaf; type: in vivo; parameters: key: injury rating scale on which 4 = death; settings: 2 lbs/acre
Procedure: as §1, §2, §3, §4, §6

| SMILES | Injury Rating, Velvet Leaf ([1]; 8 lbs/acre) | Injury Rating, Crabgrass ([3]; 1 lbs/acre) | Injury Rating, Crabgrass ([3]; 2 lbs/acre) | Injury Rating, Crabgrass ([3]; 8 lbs/acre) | Injury Rating, Cotton ([4]; 1 lbs/acre) | Injury Rating, Cotton ([4]; 2 lbs/acre) | Injury Rating, Soybean ([5]; 1 lbs/acre) | Injury Rating, Soybean ([5]; 2 lbs/acre) | Injury Rating, Pigweed ([9]; 1 lbs/acre) | Injury Rating, Pigweed ([9]; 2 lbs/acre) | Injury Rating, Pigweed ([9]; 8 lbs/acre) | Injury Rating, Corn ([10]; 1 lbs/acre) | Injury Rating, Corn ([10]; 2 lbs/acre) | Injury Rating, Corn ([10]; 8 lbs/acre) | Injury Rating, Foxtail ([12]; 1 lbs/acre) | Injury Rating, Foxtail ([12]; 2 lbs/acre) | Injury Rating, Foxtail ([12]; 8 lbs/acre) | further results |
| --- | --- | --- | --- | --- | --- | --- | --- | --- | --- | --- | --- | --- | --- | --- | --- | --- | --- | --- |
| On1c(C(F)(F)F)nc2ncc(C(F)(F)F)cc21 [1-hydroxy-2,6-bis(trifluoromethyl)-1H-imidazo(4,5-b)pyridine] | 4 | 4 | 4 | 4 | 4 | 4 | 4 | 4 | 4 | 4 | 4 | 1 | 4 | 4 | 4 | 4 | 4 | Injury Rating, Velvet Leaf ([1]; 1 lbs/acre): 4; Injury Rating, Velvet Leaf ([1]; 2 lbs/acre): 4; Injury Rating, Velvet Leaf ([1]; 4 lbs/acre): 4; Injury Rating, Soybean ([2]; 8 lbs/acre): 3; Injury Rating, Crabgrass ([3]; 4 lbs/acre): 4; Injury Rating, Cotton ([4]; 4 lbs/acre): 4; Injury Rating, Cotton ([4]; 8 lbs/acre): 4; Injury Rating, Soybean ([5]; 4 lbs/acre): 4; Injury Rating, Soybean ([5]; 8 lbs/acre): 4; Injury Rating, Corn ([6]; 8 lbs/acre): 3; Injury Rating, Crabgrass ([7]; 8 lbs/acre): 4; Injury Rating, Foxtail ([8]; 8 lbs/acre): 4; Injury Rating, Pigweed ([9]; 4 lbs/acre): 4; Injury Rating, Corn ([10]; 4 lbs/acre): 4; Injury Rating, Cotton ([11]; 8 lbs/acre): 4; Injury Rating, Foxtail ([12]; 4 lbs/acre): 4 |
| CS(=O)(=O)c1cnc2nc(C(F)(F)F)n(O)c2c1 [6-(methylsulfonyl)-1-hydroxy-2-(trifluoromethyl)-1H-imidazo(4,5-b)pyridine] | – | 2 | 2 | – | 3 | 4 | 3 | 4 | 3 | 4 | – | 1 | 2 | – | 4 | 4 | – | Injury Rating, Soybean ([2]; 2 lbs/acre): 2; Injury Rating, Pigweed [13]: 3; Injury Rating, Corn ([6]; 2 lbs/acre): 0; Injury Rating, Crabgrass ([7]; 2 lbs/acre): 2; Injury Rating, Foxtail ([8]; 2 lbs/acre): 2; Injury Rating, Cotton ([11]; 2 lbs/acre): 0; Injury Rating, Velvet Leaf [14]: 2 |
| Cc1cnc2nc(C(F)(F)F)n(O)c2c1 [6-methyl-1-hydroxy-2-(trifluoromethyl)-1H-imidazo(4,5-b)pyridine] | 1 | – | – | 3 | – | – | – | – | – | – | 3 | – | – | 1 | – | – | 3 | – |
